According to PubChem BioAssay AID2060888 (Molecular Pharmacology Branch, DTP, NCI, 2025):
Blank lines part the entries; values can stand above or below the compound they belong to.

System: 695427-040-R-J1-PDC complex spheroid viability
Test: Anticancer human tumor 695427-040-R-J1-PDC patient-derived colon adenocarcinoma cell line growth inhibition [RAS]
Settings: for IC50: curve of first compound; for viability, T/C: stronger effect = lower value
Text: RAS pathway inhibitors in Combinations in Complex Spheroids
A high-throughput screen of multi-cell type tumor spheroids was designed to identify active combinations of RAS pathway inhibitors and targeted small molecules. Complex spheroids include a stromal component modeled by human endothelial cells (HUVEC) and fibroblasts modeled by human mesenchymal stem cells (MSCs). The concentration ranges selected for each drug and investigational agent were based upon clinically achievable concentrations if the clinical Cmax of the agent was known.
Compounds. The drugs and investigational agents: abemaciclib (NSC768073), cobimetinib (NSC768068), divarasib (GDC6063, NSC841802), docetaxel (NSC628503), GDC-1971 (RLY-1971, NSC841576), gemcitabine (NSC613327), inavolisib (NSC800729), ipatasertib (NSC767898), KB-0742 (NSC834161), MRTX-1133 (NSC836407), osimertinib (NSC779217), RMC-4630 (NSC839698), RMC-6236 (NSC851965), RMC-6291 (NSC852671), Ro-3306 (NSC812927), sapanisertib (NSC764658), SN-38 (NSC673596), staurosporine (NSC755774), SY5609 (NSC837396), and tovorafenib (DAY101, NSC766906), were obtained from the National Cancer Institute (NCI) Developmental Therapeutics Program Chemical Repository. The FDA-approved anticancer drug set is available from the NCI Developmental Therapeutics Program. […] The stock solutions were prepared in dimethyl sulfoxide (DMSO, Sigma-Aldrich, St. Louis, MO, cat. D2650) at 800-fold the tested concentration and stored at -70 degrees C prior to their use. All drugs and investigational agents were tested over a range starting from a high concentration at or near the clinical Cmax and decreasing in half-log increments. If the clinical Cmax for an agent had not been determined, the highest concentration tested was 10 microM.
Cell Culture. All cells were maintained in an incubator at 37 degrees C and 5% CO2 with 95% humidity. The PDC lines were cultured according to standard operating procedures established by the NCI PDMR. All PDCs were thawed and cultured in Matrigel-coated flasks prepared with a working solution of 1X Ham's F-12 nutrient mix, without supplementation (Invitrogen, Waltham, MA, cat. 11765054), 100 U/mL penicillin-streptomycin (Invitrogen, cat. 15140122), and 2.5% Matrigel (Corning Inc., Corning, NY, cat. 354248) for the first three passages. The 362531-283-R-J2-PDC and 782815-120-R-J1-PDC lines were cultured in 6C/Colon 1B media, which includes advanced DMEM/F-12 (Thermo Fisher Scientific, cat. 12634028), 10 mM HEPES (Thermo Fisher Scientific, cat. 15630080), 1X GlutaMAX supplement (Thermo Fisher Scientific, cat. 35050061), 0.1 mg/mL primocin (InvivoGen, San Diego, CA, cat. ant-pm-2), 10% defined fetal bovine serum, heat inactivated (HyClone Laboratories Inc., Logan, UT, cat. SH30070.03HI), 50% L-WRN conditioned media (ATCC, cat. CRL-3276), 1.25 mM N-Acetyl-L-cysteine (Sigma-Aldrich, cat. A9165), 10 mM nicotinamide (Sigma-Aldrich, cat. N0636), 1X B-27 supplement (Thermo Fisher Scientific, cat. 17504044), 1X N-2 supplement (Thermo Fisher Scientific, cat. 17502048), 50 ng/mL human EGF (Thermo Fisher Scientific, cat. PHG0311), and 10 microM Y-27632 dihydrochloride (Tocris Bioscience, cat. 1254). The K12877-001-R-J1-PDC line was cultured in 6I media, which includes all 6C/Colon 1B media plus 10 ng/mL human FGF-10 (PeproTech, cat. 100-26), 1 ng/mL human FGF-2 (PeproTech, cat. 100-18B), 1 µM prostaglandin E2 (Tocris Bioscience, cat. 2296), […] hydrocortisone (Sigma-Aldrich, cat. H4001), and […] bovine insulin (Sigma-Aldrich, cat. I6634). The K86415-001-R-J1-PDC line was cultured in 6D media, which includes all 6C/Colon 1B media components minus the L-WRN conditioned media. The 485176-168-R4-J1-PDC was cultured in PANC media, which includes all 6C/Colon 1B media plus 100 ng/mL human FGF-10 (PeproTech, cat. 100-26), 500 nM SB-431542 (Selleckchem, cat. S1067), and 10 nM gastrin (Tocris Bioscience, cat. 3006). […]
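Note: viability read after seven days of drug exposure.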
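Throughout, for viability, T/C: 100% = DMSO vehicle control viability.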

IC50 (second compound 0.0316 µM): > 10000 nM
IC50 (second compound 0.1 µM): > 10000 nM
IC50 (second compound 0.316 µM): > 10000 nM
IC50 (second compound 1 µM): > 10000 nM
IC50 (second compound 3.16 µM): > 10000 nM
IC50 (second compound 10 µM): < 31.6 nM
SMILES: C[C@@H](NC(=O)c1ncnc(N)c1Cl)c1ncc(C(=O)Nc2cc(C(F)(F)F)c(Cl)cn2)s1 + C#Cc1c(F)ccc2cc(O)cc(-c3ncc4c(N5CC6CCC(C5)N6)nc(OCC56CCCN5CC(F)C6)nc4c3F)c12
viability, T/C (second compound 0.0316 µM, first compound 0.0316 µM): 99.8%
viability, T/C (second compound 0.0316 µM, first compound 0.1 µM): 117%
viability, T/C (second compound 0.0316 µM, first compound 0.316 µM): 108%
viability, T/C (second compound 0.0316 µM, first compound 1 µM): 102%
viability, T/C (second compound 0.0316 µM, first compound 3.16 µM): 101%
viability, T/C (second compound 0.0316 µM, first compound 10 µM): 80.2%
viability, T/C (second compound 0.1 µM, first compound 0.0316 µM): 109%
viability, T/C (second compound 0.1 µM, first compound 0.1 µM): 106%
viability, T/C (second compound 0.1 µM, first compound 0.316 µM): 101%
viability, T/C (second compound 0.1 µM, first compound 1 µM): 100%
viability, T/C (second compound 0.1 µM, first compound 3.16 µM): 94.3%
viability, T/C (second compound 0.1 µM, first compound 10 µM): 70.9%
viability, T/C (second compound 0.316 µM, first compound 0.0316 µM): 99.8%
viability, T/C (second compound 0.316 µM, first compound 0.1 µM): 95.1%
viability, T/C (second compound 0.316 µM, first compound 0.316 µM): 101%
viability, T/C (second compound 0.316 µM, first compound 1 µM): 93%
viability, T/C (second compound 0.316 µM, first compound 3.16 µM): 81.6%
viability, T/C (second compound 0.316 µM, first compound 10 µM): 70.3%
viability, T/C (second compound 1 µM, first compound 0.0316 µM): 87.9%
viability, T/C (second compound 1 µM, first compound 0.1 µM): 83.2%
viability, T/C (second compound 1 µM, first compound 0.316 µM): 88.5%
viability, T/C (second compound 1 µM, first compound 1 µM): 84.1%
viability, T/C (second compound 1 µM, first compound 3.16 µM): 76.3%
viability, T/C (second compound 1 µM, first compound 10 µM): 57.2%
viability, T/C (second compound 3.16 µM, first compound 0.0316 µM): 59.2%
viability, T/C (second compound 3.16 µM, first compound 0.1 µM): 60.5%
viability, T/C (second compound 3.16 µM, first compound 0.316 µM): 65.9%
viability, T/C (second compound 3.16 µM, first compound 1 µM): 63.9%
viability, T/C (second compound 3.16 µM, first compound 3.16 µM): 56.9%
viability, T/C (second compound 3.16 µM, first compound 10 µM): 42.5%
viability, T/C (second compound 10 µM, first compound 0.0316 µM): 35.1%
viability, T/C (second compound 10 µM, first compound 0.1 µM): 34.4%
viability, T/C (second compound 10 µM, first compound 0.316 µM): 42.2%
viability, T/C (second compound 10 µM, first compound 1 µM): 37.9%
viability, T/C (second compound 10 µM, first compound 3.16 µM): 41.3%
viability, T/C (second compound 10 µM, first compound 10 µM): 27.8%

IC50 (second compound 0.000949 µM): > 300 nM
IC50 (second compound 0.003 µM): > 300 nM
IC50 (second compound 0.00949 µM): > 300 nM
IC50 (second compound 0.03 µM): > 300 nM
IC50 (second compound 0.0949 µM): > 300 nM
IC50 (second compound 0.3 µM): > 300 nM
SMILES: CC1(C)CCC(Nc2ncc(C(F)(F)F)c(-c3c[nH]c4c(P(C)(C)=O)c(C#N)ccc34)n2)CN1 (centres undefined) + CCn1c(-c2cccnc2C(C)OC)c2c3cc(ccc31)N1CCOC(CC(NC(=O)C(C(C)C)N(C)C(=O)C3(F)CCN(C(=O)C#CC(C)(C)N(C)C)CC3)C(=O)N3CCCC(N3)C(=O)OCC(C)(C)C2)C1
viability, T/C (second compound 0.000949 µM, first compound 0.000949 µM): 85%
viability, T/C (second compound 0.000949 µM, first compound 0.003 µM): 116%
viability, T/C (second compound 0.000949 µM, first compound 0.00949 µM): 95.5%
viability, T/C (second compound 0.000949 µM, first compound 0.03 µM): 100%
viability, T/C (second compound 0.000949 µM, first compound 0.0949 µM): 85.6%
viability, T/C (second compound 0.000949 µM, first compound 0.3 µM): 90.6%
viability, T/C (second compound 0.003 µM, first compound 0.000949 µM): 104%
viability, T/C (second compound 0.003 µM, first compound 0.003 µM): 105%
viability, T/C (second compound 0.003 µM, first compound 0.00949 µM): 81%
viability, T/C (second compound 0.003 µM, first compound 0.03 µM): 103%
viability, T/C (second compound 0.003 µM, first compound 0.0949 µM): 86.9%
viability, T/C (second compound 0.003 µM, first compound 0.3 µM): 55.1%
viability, T/C (second compound 0.00949 µM, first compound 0.000949 µM): 108%
viability, T/C (second compound 0.00949 µM, first compound 0.003 µM): 104%
viability, T/C (second compound 0.00949 µM, first compound 0.00949 µM): 98.3%
viability, T/C (second compound 0.00949 µM, first compound 0.03 µM): 113%
viability, T/C (second compound 0.00949 µM, first compound 0.0949 µM): 103%
viability, T/C (second compound 0.00949 µM, first compound 0.3 µM): 65.4%
viability, T/C (second compound 0.03 µM, first compound 0.000949 µM): 101%
viability, T/C (second compound 0.03 µM, first compound 0.003 µM): 80.8%
viability, T/C (second compound 0.03 µM, first compound 0.00949 µM): 89.9%
viability, T/C (second compound 0.03 µM, first compound 0.03 µM): 90.5%
viability, T/C (second compound 0.03 µM, first compound 0.0949 µM): 97.5%
viability, T/C (second compound 0.03 µM, first compound 0.3 µM): 90.1%
viability, T/C (second compound 0.0949 µM, first compound 0.000949 µM): 105%
viability, T/C (second compound 0.0949 µM, first compound 0.003 µM): 78.2%
viability, T/C (second compound 0.0949 µM, first compound 0.00949 µM): 107%
viability, T/C (second compound 0.0949 µM, first compound 0.03 µM): 98%
viability, T/C (second compound 0.0949 µM, first compound 0.0949 µM): 93.3%
viability, T/C (second compound 0.0949 µM, first compound 0.3 µM): 80.2%
viability, T/C (second compound 0.3 µM, first compound 0.000949 µM): 75.7%
viability, T/C (second compound 0.3 µM, first compound 0.003 µM): 93.8%
viability, T/C (second compound 0.3 µM, first compound 0.00949 µM): 84.3%
viability, T/C (second compound 0.3 µM, first compound 0.03 µM): 92.1%
viability, T/C (second compound 0.3 µM, first compound 0.0949 µM): 85.7%
viability, T/C (second compound 0.3 µM, first compound 0.3 µM): 78.1%
